Test results as given in patent publication US20240208984A1, “BIVALENT LIGANDS TO UNDERSTAND DIMERIZATION OF THE MU OPIOID RECEPTOR AND THE CHEMOKINE RECEPTOR CCR5 IN NEUROLOGICAL DISORDERS” (priority 2021, published 2024).

What was measured:
mouse mu opioid receptor = mouse mu opioid receptor (Mus musculus (Mouse), UniProt P42866); assay: Calcium mobilization assay in mMOR-CHO cells; assay type: cell-based
Method: Calcium mobilization assay results in mMOR-CHO cells. The pharmacological profiles of the three newly prepared MOR bivalent ligands were further characterized for their effects on MOR-dependent intracellular Ca^2+ signaling in an mMOR-CHO cell line that was transfected with chimeric Gqi5 protein as previously described.
A CHO cell line stably expressing the mouse mu opioid receptor (mMOR-CHO) was used for this assay. The cells were transfected with Gαqi5 for 4 h and then plated (10,000 cells/well) to black 96-well plates with clear bottoms (Greiner Bio-One). After 24 h of incubation, the culture medium was removed, and the cells were washed with assay buffer (50 mL of HBSS, 1 mL of HEPES, 250 μL of probenecid, 50 μL of 1 mM CaCl2, and 50 μL of 1 mM MgCl2). The tested compounds were dissolved in DMSO as a stock solution for the assay (1 M). For agonist assays, cells were then incubated with 50 μL/well loading buffer (6 mL of assay buffer, 24 μL of Fluo4-AM solution (Invitrogen), and 12 μL of probenecid solution) for 60 min. Following incubation, different concentrations of the tested compounds were added by a FlexStation3 microplate reader (Molecular Devices) and read at ex494/em516. Each concentration was run in triplicate. For antagonism studies, the cells were incubated with the same loading buffer as the agonist assay for 60 min. Then, different concentrations of the tested compounds (20 μL/well) were manually added to each well followed by another 15 min of incubation. […] Each concentration was run in triplicate. The corresponding IC50 value of each compound was calculated by non-linear regression using GraphPad Prism 8.0.1 (GraphPad Software, San Diego, CA).

HIV-1BaL [1] = assay: Anti-HIV-1BaL activity (reverse transcriptase activity) in GHOST CCR5 cells; conditions: read-out: Inhibition of HIV-1BaL EC50, RT activity, triplicate
Method: This assay was run in GHOST-CCR5 cells using the CCR5-tropic viral strain HIV-1BaL.
100 μL of GHOST CCR5 cells at a density of 1×10^4 cells/well in 10% complete DMEM (10% FBS with 1% L-glutamine and 1% Penicillin/Streptomycin) media were plated in a 96-well flat bottom plate and incubated for 24 h at 37° C./5% CO2. Following the incubation, 100 μL of each compound at 6 concentrations were added in triplicate to both efficacy and toxicity plates followed by 100 μL of HIV-1BaL at a pre-determined titer to the plates being evaluated for efficacy and 50 μL of complete DMEM to the plates being evaluated for cytotoxicity. The cultures were incubated for 6 days at 37° C./5% CO2. Following the incubation, 50 μL of cell culture supernatant was removed from the wells of the efficacy plates for subsequent evaluation of virus content by reverse transcriptase activity assay. The toxicity plates being evaluated for cytotoxicity were stained with XTT.
RT activity (EC50 values) was measured using standard radioactivity incorporation polymerization assay. 1 μL of titrated thymidine triphosphate (TTP) at 1 Ci/mL was used per enzyme reaction. Poly rA and oligo dT were prepared at concentrations of 0.5 mg/mL and 1.7 Units/mL, respectively, from a stock solution which was kept at −20° C. The RT reaction buffer was prepared fresh and consists of 125 μL of 1M EGTA, 125 μL of dH2O, 125 μL of 20% Triton X-100, 50 μL of 1M Tris (pH 7.4), 50 μL of 1M DTT, and 40 μL of 1 M MgCl2. For each reaction, 1 μL of TTP, 4 μL of dH2O, 2.5 μL of rAdT and 2.5 μL of reaction buffer were mixed. 10 μL of this reaction mixture was placed in a round bottom microtiter plate with 15 μL of virus containing supernatant. The plate was incubated at 37° C. in a humidified incubator for 60-90 min. […] The dried filtermat was placed in a plastic sleeve and 4 mL of Opti-Fluor O (Perkin Elmer, catalog #1205-440) scintillation fluid was added to each sleeve. […] TC50 values for the tested compounds were derived by measuring the reduction of the tetrazolium dye XTT (2,3-bis(2-methoxy-4-nitro-5-sulfophenyl)-5-[(phenylamino)carbonyl]-2H-tetrazolium hydroxide). XTT in metabolically active cells is metabolized by the mitochondrial enzyme NADPH oxidase to a soluble formazan product. XTT solution was prepared as a stock of 1 mg/mL in RPMI-1640 without additives. Phenazine methosulfate (PMS) solution was prepared at 0.15 mg/mL in DPBS and stored in the dark at −20° C. XTT/PMS stock was prepared immediately before use by adding 40 μL of PMS per mL of XTT solution. […] The plates were sealed and inverted several times to mix the soluble formazan product and the plate was read at 450 nm (650 nm reference wavelength) with a Molecular Devices SPECTRAMAX® Plus 384 96 well format spectrophotometer.

[2] = test system: HIV-1BaL Env-pseudotyped Luc-expressing virus; assay: HIV-1 infection assay in PHA-stimulated PBMC cells; assay type: cell-based; conditions: PHA-stimulated PBMCs, 100 nM
Method: Peripheral blood mononuclear cells (PBMCs) include large numbers of CCR5-expressing leukocytes and are susceptible to infection by R5-tropic HIV-1 strains.
In a 24-well plate, PHA-stimulated PBMC cells from healthy donors were infected by incubation with the HIV-1BaL.01 env-pseudotyped Luc virus. A concentration of HIV-1 p24 50 pg/106 cells was used, and uninfected cells served as a negative control. […] After approximately 18-20 h, the supernatant was removed and stored at −80° C., cells were rinsed twice with PBS and lysed. The lysate was subsequently tested for the relative Tat protein expression by using a luciferase assay system (Promega). Luciferase activity was measured using a PHERASTAR® FS plate reader (BMG Labtech).

mouse MOR = mouse MOR (Mus musculus (Mouse), UniProt P42866); assay: In vitro MOR radioligand binding assay; conditions: [3H]naloxone radioligand; mMOR-CHO; mean ± SEM; read-out: MOR Radioligand Binding Affinity Ki
Method: In vitro MOR radioligand binding studies. All bivalent ligands were first tested for their binding affinity to the MOR. The competitive radioligand binding assay was conducted using monoclonal mouse MOR expressed in CHO cell lines (mMOR-CHO).
In vitro MOR radioligand binding assay The competition binding assay was conducted using monoclonal mouse MOR expressed in Chinese hamster ovary (CHO) cell lines. In this assay, 30 μg of membrane protein was incubated with the radioligand [^3H] naloxone in the presence of different concentrations of tested compounds in TME buffer (50 mM Tris, 3 mM MgCl2, and 0.2 mM EGTA, pH 7.4) for 1.5 h at 30° C. The bound radioligand was separated by filtration using a Brandel harvester. […] The IC50 values were determined and converted to Ki values using the Cheng-Prusoff equation: Ki=IC50/[1+([L*]/KD)], where [L*] is the concentration of the radioligand and KD is the KD of the radioligand was determined.73

HIV-1BaL [3] = assay: HIV-1BaL infection assay in MOR-CCR5 co-expressed TZM-b1 cells; assay type: cell-based; conditions: read-out: Inhibition of HIV-1BaL infection EC50
Method: CCR5-expressing TZM-b1 cells co-express an HIV-1 long-terminal repeat (LTR)-firefly luciferase reporter that can be activated by Tat (trans-activator of transcription) in cells expressing HIV. […] To initially determine whether the co-expression of MOR affected HIV-1 entry/expression, OPRM1- or control plasmid-transfected TZM-b1 cells were exposed to varying concentrations of HIV-1BaL and HIV-1 entry was calculated based on LTR-driven luciferase activity.
HIV-1BaL.01 was kindly donated and expanded in Phytohemagglutinin (PHA)-activated Peripheral Blood Mononuclear Cells (PBMCs). The amount of viral particles was determined by commercial ELISA for p24 capsid antigen (Zeptometrix) and aliquots were stored at −80° C. The TZM-b1, a cell line contained integrated copies of luciferase under control of the HIV-1 long-terminal repeat (LTR), were kindly donated.
Cells were transfected with plasmid containing GFP-tagged human opioid receptor mu 1 gene (OPRM1; Origene) or with the original empty vector also containing GFP (control plasmid; Origene) and selected for 2 weeks with 2 mg/ml G418 (Invivogen) in DMEM (Hyclone) supplemented with 1×MEM Non-essential amino acids (Gibco), 10% heat-inactivated FBS (Hyclone) and 100 U Penicillin-0.1 mg/ml Streptomycin (Sigma). Then, GFP+ cells were sorted out twice by flow cytometry (BDFACSAria model, Becton-Dickinson) and maintained in the conditions mentioned above with 800 μg/ml G418. For the infection, cells were detached from 25 cm2 flasks with 0.25% Trypsin (Sigma), washed by centrifugation (400 g—10 mins) and viable cells determined by Trypan blue (Sigma) exclusion. […] Luciferase activity was evaluated following the addition of 100 μL/well of 2× luciferase substrate containing lysis buffer (BRIGHT-GLO™ Luciferase Substrate, Promega) after 2-3 days of infection.
Luminescence, reported as relative luminescence units (RLU), was evaluated in PHERASTAR® FS plate reader and results expressed as percentage of inhibition relative to vehicle-treated, infected cells (100% infection).

Sequence of mouse mu opioid receptor (P42866 whole entry, looked up): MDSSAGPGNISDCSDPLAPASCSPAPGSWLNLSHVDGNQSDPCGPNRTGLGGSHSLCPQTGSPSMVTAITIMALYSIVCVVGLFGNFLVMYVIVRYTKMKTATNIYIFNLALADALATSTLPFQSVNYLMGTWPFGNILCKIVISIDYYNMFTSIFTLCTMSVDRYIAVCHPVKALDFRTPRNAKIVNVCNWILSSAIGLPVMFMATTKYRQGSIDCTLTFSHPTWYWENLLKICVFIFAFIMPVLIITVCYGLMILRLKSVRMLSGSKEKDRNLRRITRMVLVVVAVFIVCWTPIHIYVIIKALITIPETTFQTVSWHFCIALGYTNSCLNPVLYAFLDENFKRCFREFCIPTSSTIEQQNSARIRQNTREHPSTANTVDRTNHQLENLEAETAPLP
Sequence of mouse MOR (P42866 whole entry, looked up): as above

SMILES: CC(C)c1nnc(CCNC(=O)COCC(=O)NCCCCCCCNC(=O)COCC(=O)NC2CC[C@@]3(O)[C@H]4Cc5ccc(O)c6c5[C@@]3(CCN4CC3CC3)[C@H]2O6)n1C1CC2CCC(C1)N2CC[C@H](NC(=O)C1CCC(F)(F)CC1)c1ccccc1 (stereo partly shown) [VZMC013]
- MOR agonism in Ca2+ mobilization (mouse mu opioid receptor; agonist mode, varying concentrations): No agonism was observed
- IC50 (mouse mu opioid receptor; read-out: Inhibition of DAMGO Induced Ca2+ Mobilization IC50, mMOR-CHO transfected with Gqi5, DAMGO 500 nM, mean ± SEM): 50 ± 2.45 nM
- EC50 (HIV-1BaL [1]): 93 nM
- decrease in HIV expression ([2]; co-exposed to DAMGO 10 nM): 69%
- decrease in HIV expression ([2]; co-exposed to morphine 10 nM): 55%
- reduction in luminescence (viral entry) ([2]; no opioid): 22%
- Ki (mouse MOR): 6.05 nM
- EC50 (HIV-1BaL [3]; OPRM1 transfected TZM-b1 cells, morphine 100 μM added): 247 nM
- EC50 (HIV-1BaL [3]; OPRM1 transfected TZM-b1 cells, without morphine): 368 nM
- EC50 (HIV-1BaL [3]; control plasmid transfected TZM-b1 cells): 610 nM
